US7485640B2, “Imidazopyrazinones as GABA-A receptor anxiolytics” (Merck Sharp & Dohme Limited, priority 2002, dated 2009)

CN1CCn2c(-c3ccc(F)c(-c4ccc(F)cc4C#N)c3)cnc2C1=O [Example 22, 4,2′-Difluoro-5′-(7-methyl-8-oxo-5,6,7,8-tetrahydroimidazo[1,2-a]pyrazin-3-yl)biphenyl-2-carbonitrile]
melting point: 224 °C
